How the values were obtained:
Assay in all cases: Kinase Inhibition Assay
[1] = target: Cyclin-dependent kinase 4 (Homo sapiens, UniProt P11802)
Description: (§1) The kinase activity is the enzyme activity that catalyzes the transfer of the terminal phosphate from [gamma-32P] ATP to the poly (E: Y) substrate. Nonspecific activity was defined as radioactivity retained on the filters following incubation of samples without enzyme. Specific activity was determined as total activity minus nonspecific activity.

[2] = target: Mitogen-activated protein kinase 1/3 (Homo sapiens, UniProt P27361+P28482)
Sequence of Mitogen-activated protein kinase 1/3 (P28482 whole entry): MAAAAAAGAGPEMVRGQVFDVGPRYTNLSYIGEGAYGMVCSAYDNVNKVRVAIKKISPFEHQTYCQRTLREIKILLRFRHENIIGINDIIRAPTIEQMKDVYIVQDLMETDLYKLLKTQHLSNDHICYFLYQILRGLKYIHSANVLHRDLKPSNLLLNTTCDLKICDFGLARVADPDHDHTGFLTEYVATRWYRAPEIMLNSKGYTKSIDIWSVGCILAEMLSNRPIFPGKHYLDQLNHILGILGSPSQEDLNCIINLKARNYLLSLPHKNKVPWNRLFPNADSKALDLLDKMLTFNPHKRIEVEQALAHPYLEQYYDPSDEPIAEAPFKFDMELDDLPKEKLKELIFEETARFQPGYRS
Sequence of Mitogen-activated protein kinase 1/3 (P27361 whole entry): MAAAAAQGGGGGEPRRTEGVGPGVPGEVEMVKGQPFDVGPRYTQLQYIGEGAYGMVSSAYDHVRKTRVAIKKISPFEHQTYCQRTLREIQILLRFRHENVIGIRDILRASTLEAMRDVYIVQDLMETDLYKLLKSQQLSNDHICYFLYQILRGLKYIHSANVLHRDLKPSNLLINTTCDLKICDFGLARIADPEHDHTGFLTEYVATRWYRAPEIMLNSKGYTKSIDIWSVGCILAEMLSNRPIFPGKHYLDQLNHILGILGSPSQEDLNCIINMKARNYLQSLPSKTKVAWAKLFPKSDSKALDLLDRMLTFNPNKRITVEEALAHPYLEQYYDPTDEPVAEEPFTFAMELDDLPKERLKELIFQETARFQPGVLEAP
Description: as §1

[3] = target: Platelet-derived growth factor receptor alpha/beta (Homo sapiens, UniProt P09619+P16234)
Description: as §1

[4] = target: Platelet-derived growth factor receptor beta (Homo sapiens, UniProt P09619)
Sequence of Platelet-derived growth factor receptor beta (P09619 whole entry): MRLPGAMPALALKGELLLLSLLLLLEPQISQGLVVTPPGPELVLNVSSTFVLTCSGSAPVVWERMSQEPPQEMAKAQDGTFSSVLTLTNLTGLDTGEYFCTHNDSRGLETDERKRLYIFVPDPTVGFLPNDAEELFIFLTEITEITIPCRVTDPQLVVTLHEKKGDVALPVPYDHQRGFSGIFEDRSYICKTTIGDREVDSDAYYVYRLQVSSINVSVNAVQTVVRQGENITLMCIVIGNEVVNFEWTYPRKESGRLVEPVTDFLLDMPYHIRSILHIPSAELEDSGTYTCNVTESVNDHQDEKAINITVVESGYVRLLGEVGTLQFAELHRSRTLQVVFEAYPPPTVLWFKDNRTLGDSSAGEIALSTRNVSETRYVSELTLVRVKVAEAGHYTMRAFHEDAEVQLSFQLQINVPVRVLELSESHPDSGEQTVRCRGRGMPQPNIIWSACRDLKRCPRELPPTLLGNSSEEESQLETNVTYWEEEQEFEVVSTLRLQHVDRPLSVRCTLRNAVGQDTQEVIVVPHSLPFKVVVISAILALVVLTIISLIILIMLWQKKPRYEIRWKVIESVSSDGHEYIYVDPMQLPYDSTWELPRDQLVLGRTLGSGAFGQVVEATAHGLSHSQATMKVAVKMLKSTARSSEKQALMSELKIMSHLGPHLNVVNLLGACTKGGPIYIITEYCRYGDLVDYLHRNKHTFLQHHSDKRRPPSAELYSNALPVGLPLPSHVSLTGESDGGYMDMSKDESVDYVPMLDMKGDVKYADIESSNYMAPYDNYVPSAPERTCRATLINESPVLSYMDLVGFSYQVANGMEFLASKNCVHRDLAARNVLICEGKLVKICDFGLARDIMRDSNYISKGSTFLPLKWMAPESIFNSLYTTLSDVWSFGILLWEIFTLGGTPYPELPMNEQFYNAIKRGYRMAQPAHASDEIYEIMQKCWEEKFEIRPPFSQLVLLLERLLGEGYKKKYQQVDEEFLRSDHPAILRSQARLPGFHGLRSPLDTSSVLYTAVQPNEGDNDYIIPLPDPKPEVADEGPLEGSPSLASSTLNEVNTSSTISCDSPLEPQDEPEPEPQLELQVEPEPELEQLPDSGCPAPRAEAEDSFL
Description: as §1

[5] = target: Fibroblast growth factor receptor 1 (Homo sapiens, UniProt P11362)
Sequence of Fibroblast growth factor receptor 1 (P11362 whole entry): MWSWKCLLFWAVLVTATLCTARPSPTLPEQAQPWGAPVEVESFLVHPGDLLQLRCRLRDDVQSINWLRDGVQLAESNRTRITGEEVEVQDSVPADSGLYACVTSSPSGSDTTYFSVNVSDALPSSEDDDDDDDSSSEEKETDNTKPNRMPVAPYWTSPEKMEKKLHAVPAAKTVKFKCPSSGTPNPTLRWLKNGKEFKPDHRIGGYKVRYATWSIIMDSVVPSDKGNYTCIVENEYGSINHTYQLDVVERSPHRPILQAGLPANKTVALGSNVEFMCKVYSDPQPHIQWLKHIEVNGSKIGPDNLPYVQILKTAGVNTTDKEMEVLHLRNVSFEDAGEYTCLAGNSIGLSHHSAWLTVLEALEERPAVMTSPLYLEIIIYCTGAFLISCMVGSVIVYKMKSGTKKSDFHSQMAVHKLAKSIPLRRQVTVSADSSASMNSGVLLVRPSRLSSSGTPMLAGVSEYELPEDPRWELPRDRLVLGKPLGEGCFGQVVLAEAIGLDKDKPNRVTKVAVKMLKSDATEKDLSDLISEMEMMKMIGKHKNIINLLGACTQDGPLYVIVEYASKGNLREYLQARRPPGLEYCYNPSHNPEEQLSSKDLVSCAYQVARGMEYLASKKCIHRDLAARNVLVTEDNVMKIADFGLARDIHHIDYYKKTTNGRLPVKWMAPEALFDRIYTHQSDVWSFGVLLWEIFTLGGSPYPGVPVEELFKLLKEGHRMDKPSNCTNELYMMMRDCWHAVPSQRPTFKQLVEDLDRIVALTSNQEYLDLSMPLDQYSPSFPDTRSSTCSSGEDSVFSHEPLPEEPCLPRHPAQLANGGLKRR
Description: as §1

[6] = target: Proto-oncogene tyrosine-protein kinase Src (Homo sapiens, UniProt P12931)
Sequence of Proto-oncogene tyrosine-protein kinase Src (P12931 2-536 limits assumed): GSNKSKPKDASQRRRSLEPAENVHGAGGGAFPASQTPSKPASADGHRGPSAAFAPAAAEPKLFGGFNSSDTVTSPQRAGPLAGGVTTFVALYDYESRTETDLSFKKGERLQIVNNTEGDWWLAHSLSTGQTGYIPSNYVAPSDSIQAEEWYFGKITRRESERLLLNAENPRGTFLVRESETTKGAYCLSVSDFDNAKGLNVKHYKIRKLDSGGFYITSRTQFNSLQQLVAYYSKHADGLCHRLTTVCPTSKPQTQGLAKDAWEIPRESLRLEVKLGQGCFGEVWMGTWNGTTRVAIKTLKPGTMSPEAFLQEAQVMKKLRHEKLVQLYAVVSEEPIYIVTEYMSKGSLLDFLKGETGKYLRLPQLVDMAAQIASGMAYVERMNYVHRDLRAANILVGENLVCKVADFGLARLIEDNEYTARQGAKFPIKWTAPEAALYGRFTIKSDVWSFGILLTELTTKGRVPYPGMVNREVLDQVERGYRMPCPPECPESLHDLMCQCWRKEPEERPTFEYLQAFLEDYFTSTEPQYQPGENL
Description: as §1

Protein kinase C (PKC) = target: Protein kinase C (PKC)
Description: as §1

Sequence of Cyclin-dependent kinase 4 (P11802 whole entry): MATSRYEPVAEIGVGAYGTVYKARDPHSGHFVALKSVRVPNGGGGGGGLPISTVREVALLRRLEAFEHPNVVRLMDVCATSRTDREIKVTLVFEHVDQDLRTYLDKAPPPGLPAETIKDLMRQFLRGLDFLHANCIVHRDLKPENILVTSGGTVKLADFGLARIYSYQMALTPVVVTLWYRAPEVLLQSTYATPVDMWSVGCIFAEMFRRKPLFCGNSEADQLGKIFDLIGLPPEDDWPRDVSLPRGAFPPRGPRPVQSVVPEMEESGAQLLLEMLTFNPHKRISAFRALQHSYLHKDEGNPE

Question: For `CC(C)(C)NC(=O)Nc1nc2nc(N)ncc2cc1-c1c(Cl)cccc1Cl`, which IC50 [1] is on record?
Answer: > 50 µM

Question: And the IC50 [2]?
Answer: 7.1 µM

Question: And the IC50 [3]?
Answer: 1.25 µM

Question: And the IC50 ([4]; pH 7.4, 25 °C)?
Answer: 1.25 µM

Question: Which IC50 [5] does the source give for `CN(C)c1cc(-c2cc3cnc(N)nc3nc2NC(=O)NC(C)(C)C)cc(N(C)C)c1` here?
Answer: 16 µM

Question: And the IC50 [3]?
Answer: > 50 µM

Question: And the IC50 [4]?
Answer: > 50 µM

Question: And the IC50 [6]?
Answer: > 50 µM

Question: For `CCN(CC)CCOc1ccc(C)c(-c2cc3cnc(N)nc3nc2NC(=O)NC(C)(C)C)c1C` [1-(2-amino-6-{3-[2-(diethylamino)ethoxy]-2,6-dimethylphenyl}pyrido[2,3-d]pyrimidin-7-yl)-3-tert-butylurea], which IC50 [5] is on record?
Answer: 0.89 µM

Question: And the IC50 [3]?
Answer: 11.8 µM

Question: And the IC50 ([4]; pH 7.4, 25 °C)?
Answer: 11.8 µM

Question: What about the IC50 [6] of the same molecule?
Answer: 1.65 µM

Question: `CC(C)(C)NC(=O)Nc1nc2nc(N)ncc2cc1-c1c(Br)cccc1Br` [1-[2-Amino-6-(2,6-dibromo-phenyl)-pyrido-[2,3-d]pyrimidin-7-yl]-3-tert-butyl-urea] was tested. Which IC50 [5] did it give?
Answer: 0.29 µM

Question: What about the IC50 [3] of the same molecule?
Answer: 1.42 µM

Question: And the IC50 ([4]; pH 7.4, 25 °C)?
Answer: 1.42 µM

Question: What about the IC50 [6] of the same molecule?
Answer: 0.21 µM

Question: With `Cc1c(C)c(C)c(-c2cc3cnc(N)nc3nc2NC(=O)NC(C)(C)C)c(C)c1C` [1-[2-amino-6-(2,3,4,5,6-pentamethylphenyl)pyrido[2,3-d]pyrimidin-7-yl]-3-tert-butylurea] as the molecule, how does the IC50 [5] read?
Answer: 1.62 µM

Question: And the IC50 [3]?
Answer: > 50 µM

Question: And the IC50 ([4]; pH 7.4, 25 °C)?
Answer: > 50 µM

Question: What about the IC50 [6] of the same molecule?
Answer: > 50 µM

Question: Which results are given for `Cc1cc(C)c(C)c(-c2cc3cnc(N)nc3nc2NC(=O)NC(C)(C)C)c1C` [1-[2-amino-6-(2,3,5,6-tetramethylphenyl)pyrido[2,3-d]pyrimidin-7-yl]-3-tert-butylurea]?
Answer: IC50 [1]: > 40 µM; IC50 [2]: > 50 µM; IC50 [3]: > 50 µM; IC50 ([4]; pH 7.4, 25 °C): > 50 µM; IC50 (Protein kinase C (PKC)): > 50 µM

Question: For `CC(C)(C)NC(=O)Nc1nc2nc(N)ncc2cc1-c1c(Cl)ccc(Cl)c1Cl` [1-[2-amino-6-(2,3,6-trichlorophenyl)pyrido[2,3-d]pyrimidin-7-yl]-3-tert-butylurea], which IC50 [5] is on record?
Answer: 0.11 µM

Question: And the IC50 [3]?
Answer: 2.96 µM

Question: And the IC50 ([4]; pH 7.4, 25 °C)?
Answer: 2.96 µM

Question: `CC(C)(C)NC(=O)Nc1nc2nc(N)ncc2cc1-c1cccc(Cl)c1Cl` [1-[2-amino-6-(2,3-dichlorophenyl)pyrido[2,3-d]pyrimidin-7-yl]-3-tert-butylurea] was tested. Which IC50 [5] did it give?
Answer: 0.16 µM

Question: And the IC50 [3]?
Answer: 2.26 µM

Question: What about the IC50 ([4]; pH 7.4, 25 °C) of the same molecule?
Answer: 2.26 µM

Question: What about the IC50 [6] of the same molecule?
Answer: 4.41 µM

Question: What does the source list for `Cc1cccc(-c2cc3cnc(N)nc3nc2NC(=O)NC(C)(C)C)c1C` [1-[2-amino-6-(2,3-dimethylphenyl)pyrido[2,3-d]pyrimidin-7-yl]-3-tert-butylurea]?
Answer: IC50 [3]: 6.05 µM; IC50 ([4]; pH 7.4, 25 °C): 6.05 µM

Question: For `Cc1cc(C)c(-c2cc3cnc(N)nc3nc2NC(=O)NC(C)(C)C)c(C)c1` [1-[2-amino-6-(2,4,6-trimethylphenyl)pyrido[2,3-d]pyrimidin-7-yl]-3-tert-butylurea], which IC50 [5] is on record?
Answer: 0.27 µM

Question: What about the IC50 [3] of the same molecule?
Answer: 1.47 µM

Question: What about the IC50 ([4]; pH 7.4, 25 °C) of the same molecule?
Answer: 1.47 µM

Question: What about the IC50 [6] of the same molecule?
Answer: 0.36 µM

Question: `CC(C)(C)NC(=O)Nc1nc2nc(N)ncc2cc1-c1c(F)cccc1F` [1-[2-amino-6-(2,6-difluorophenyl)pyrido[2,3-d]pyrimidin-7-yl]-3-tert-butylurea] was tested. Which IC50 [5] did it give?
Answer: 0.11 µM

Question: What about the IC50 [3] of the same molecule?
Answer: 1.67 µM

Question: And the IC50 ([4]; pH 7.4, 25 °C)?
Answer: 1.67 µM

Question: And the IC50 [6]?
Answer: 0.8 µM

Question: How did the IC50 [3] turn out when `CC(C)(C)NC(=O)Nc1nc2nc(N)ncc2cc1-c1c(Cl)cccc1Br` [1-[2-amino-6-(2-bromo-6-chlorophenyl)pyrido[2,3-d]pyrimidin-7-yl]-3-tert-butylurea] was run?
Answer: 0.62 µM

Question: What about the IC50 ([4]; pH 7.4, 25 °C) of the same molecule?
Answer: 0.62 µM

Question: What about the IC50 [6] of the same molecule?
Answer: 0.21 µM

Question: How did the IC50 [5] turn out when `CCc1ccccc1-c1cc2cnc(N)nc2nc1NC(=O)NC(C)(C)C` [1-[2-amino-6-(2-ethylphenyl)pyrido[2,3-d]pyrimidin-7-yl]-3-tert-butylurea] was run?
Answer: 11.2 µM

Question: And the IC50 [3]?
Answer: 4.48 µM

Question: And the IC50 ([4]; pH 7.4, 25 °C)?
Answer: 4.48 µM

Question: What about the IC50 [6] of the same molecule?
Answer: 10.4 µM

Question: How did the IC50 [3] turn out when `COc1ccccc1-c1cc2cnc(N)nc2nc1NC(=O)NC(C)(C)C` [1-[2-amino-6-(2-methoxyphenyl)pyrido[2,3-d]pyrimidin-7-yl]-3-tert-butylurea] was run?
Answer: 4.48 µM

Question: And the IC50 ([4]; pH 7.4, 25 °C)?
Answer: 4.48 µM

Question: What about the IC50 [6] of the same molecule?
Answer: 10.4 µM

Question: For `Cc1ccccc1-c1cc2cnc(N)nc2nc1NC(=O)NC(C)(C)C` [1-[2-amino-6-(2-methylphenyl)pyrido[2,3-d]pyrimidin-7-yl]-3-tert-butylurea], which IC50 [3] is on record?
Answer: 1.05 µM

Question: And the IC50 ([4]; pH 7.4, 25 °C)?
Answer: 1.05 µM

Question: How did the IC50 [5] turn out when `COc1ccc(-c2cc3cnc(N)nc3nc2NC(=O)NC(C)(C)C)cc1OC` [1-[2-amino-6-(3,4-dimethoxyphenyl)pyrido[2,3-d]pyrimidin-7-yl]-3-tert-butylurea] was run?
Answer: 20.2 µM

Question: What about the IC50 [3] of the same molecule?
Answer: > 50 µM

Question: What about the IC50 [4] of the same molecule?
Answer: > 50 µM

Question: And the IC50 [6]?
Answer: > 50 µM

Question: What does the source list for `CCOc1cc(OCC)cc(-c2cc3cnc(N)nc3nc2NC(=O)NC(C)(C)C)c1` [1-[2-amino-6-(3,5-diethoxyphenyl)pyrido[2,3-d]pyrimidin-7-yl]-3-tert-butylurea]?
Answer: IC50 [5]: 1.65 µM; IC50 [3]: > 50 µM; IC50 [4]: > 50 µM; IC50 [6]: > 50 µM

Question: What does the source list for `CCc1cc(CC)cc(-c2cc3cnc(N)nc3nc2NC(=O)NC(C)(C)C)c1` [1-[2-amino-6-(3,5-diethylphenyl)pyrido[2,3-d]pyrimidin-7-yl]-3-tert-butylurea]?
Answer: IC50 [5]: 7.76 µM; IC50 [3]: > 50 µM; IC50 ([4]; pH 7.4, 25 °C): > 50 µM; IC50 [6]: > 50 µM

Question: How did the IC50 [5] turn out when `CC(C)(C)NC(=O)Nc1nc2nc(N)ncc2cc1-c1cc(F)cc(F)c1` [1-[2-amino-6-(3,5-difluorophenyl)pyrido[2,3-d]pyrimidin-7-yl]-3-tert-butylurea] was run?
Answer: 1.1 µM

Question: And the IC50 [3]?
Answer: 8.97 µM

Question: And the IC50 ([4]; pH 7.4, 25 °C)?
Answer: 8.97 µM

Question: What about the IC50 [6] of the same molecule?
Answer: 1.35 µM

Question: What does the source list for `Cc1cc(C)cc(-c2cc3cnc(N)nc3nc2NC(=O)NC(C)(C)C)c1` [1-[2-amino-6-(3,5-dimethylphenyl)pyrido[2,3-d]pyrimidin-7-yl]-3-tert-butylurea]?
Answer: IC50 [5]: 1.13 µM; IC50 [3]: 52.9 µM; IC50 ([4]; pH 7.4, 25 °C): 52.9 µM; IC50 [6]: > 50 µM

Question: Which IC50 [5] does the source give for `CCOc1cccc(-c2cc3cnc(N)nc3nc2NC(=O)NC(C)(C)C)c1` [1-[2-amino-6-(3-ethoxyphenyl)pyrido[2,3-d]pyrimidin-7-yl]-3-tert-butylurea] here?
Answer: 0.67 µM

Question: What about the IC50 [3] of the same molecule?
Answer: 23 µM

Question: And the IC50 [4]?
Answer: 23 µM

Question: What about the IC50 [6] of the same molecule?
Answer: > 50 µM

Question: `COc1cccc(-c2cc3cnc(N)nc3nc2NC(=O)NC(C)(C)C)c1` [1-[2-amino-6-(3-methoxyphenyl)pyrido[2,3-d]pyrimidin-7-yl]-3-tert-butylurea] was tested. Which IC50 [5] did it give?
Answer: 0.36 µM

Question: And the IC50 [3]?
Answer: 22.9 µM

Question: And the IC50 [4]?
Answer: 22.9 µM

Question: `COc1ccc(-c2cc3cnc(N)nc3nc2NC(=O)NC(C)(C)C)cc1` [1-[2-amino-6-(4-methoxyphenyl)pyrido[2,3-d]pyrimidin-7-yl]-3-tert-butylurea] was tested. Which IC50 [5] did it give?
Answer: 3.97 µM

Question: And the IC50 [3]?
Answer: 2.89 µM

Question: And the IC50 [4]?
Answer: 2.89 µM

Question: And the IC50 [6]?
Answer: > 50 µM

Question: Which results are given for `Cc1ccc(-c2cc3cnc(N)nc3nc2NC(=O)NC(C)(C)C)cc1` [1-[2-amino-6-(4-methylphenyl)pyrido[2,3-d]pyrimidin-7-yl]-3-tert-butylurea]?
Answer: IC50 [5]: 1.67 µM; IC50 [3]: 6.31 µM; IC50 ([4]; pH 7.4, 25 °C): 6.31 µM; IC50 [6]: 17.5 µM

Question: `CC(C)(C)NC(=O)Nc1nc2nc(N)ncc2cc1-c1cc(C(F)(F)F)cc(C(F)(F)F)c1` [1-{2-amino-6-[3,5-bis(trifluoromethyl)phenyl]pyrido[2,3-d]pyrimidin-7-yl}-3-tert-butylurea] was tested. Which IC50 [5] did it give?
Answer: > 50 µM

Question: What about the IC50 [3] of the same molecule?
Answer: > 50 µM

Question: And the IC50 ([4]; pH 7.4, 25 °C)?
Answer: > 50 µM

Question: What about the IC50 [6] of the same molecule?
Answer: > 50 µM

Question: How did the IC50 [5] turn out when `CC(C)(C)NC(=O)Nc1nc2nc(N)ncc2cc1-c1ccccc1` [1-{2-amino-6-phenylpyrido[2,3-d]pyrimidin-7-yl}-3-tert-butylurea] was run?
Answer: 8 µM

Question: What about the IC50 [3] of the same molecule?
Answer: 13.2 µM

Question: What about the IC50 ([4]; pH 7.4, 25 °C) of the same molecule?
Answer: 13.2 µM

Question: And the IC50 [6]?
Answer: 19.3 µM

Question: How did the IC50 [1] turn out when `COc1cc(OC)cc(-c2cc3cnc(N)nc3nc2NC(=O)NC(C)(C)C)c1` [6-arylpyrido[2,3-d]pyrimidine deriv. 25] was run?
Answer: > 40 µM

Question: And the IC50 [5]?
Answer: 0.06 µM

From BindingDB's records for doi:10.1074/jbc.M606873200 (Parke-Davis Pharmaceutical Research, 1997)
